Measured values published in PubChem BioAssay (NCI).
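How tested: cells in 96-well plates exposed to compound for 48 hours at five concentrations. GI50 = concentration required for 50% inhibition of growth. TGI denotes the concentration required for complete inhibition of growth.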

Assays:
Assay in all cases: NCI anticancer screen, dose series, 48 h
OVCAR-5 ovarian = tested on: OVCAR-5 ovarian
SN12C renal = tested on: SN12C renal
IGROV1 ovarian = tested on: IGROV1 ovarian
SK-MEL-5 melanoma = tested on: SK-MEL-5 melanoma
M14 melanoma = tested on: M14 melanoma
NCI/ADR-RES ovarian = tested on: NCI/ADR-RES ovarian
HT29 colon = tested on: HT29 colon
A549 NSCLC = tested on: A549 NSCLC
SF-268 CNS = tested on: SF-268 CNS
EKVX NSCLC = tested on: EKVX NSCLC

Structure (SMILES) | GI50 (OVCAR-5 ovarian) [µM] | TGI (OVCAR-5 ovarian) [µM] | GI50 (SN12C renal) [µM] | TGI (SN12C renal) [µM] | GI50 (IGROV1 ovarian) [µM] | TGI (IGROV1 ovarian) [µM] | GI50 (SK-MEL-5 melanoma) [µM] | TGI (SK-MEL-5 melanoma) [µM] | GI50 (M14 melanoma) [µM] | TGI (M14 melanoma) [µM] | GI50 (NCI/ADR-RES ovarian) [µM] | TGI (NCI/ADR-RES ovarian) [µM] | GI50 (HT29 colon) [µM] | TGI (HT29 colon) [µM] | GI50 (A549 NSCLC) [µM] | TGI (A549 NSCLC) [µM] | GI50 (SF-268 CNS) [µM] | TGI (SF-268 CNS) [µM] | TGI (EKVX NSCLC) [µM] | GI50 (EKVX NSCLC) [µM]
Cc1nn(-c2nc3ccccc3[nH]2)c2c1C(c1ccc3c(c1)OCO3)CC(=O)N2 (configuration not stated) | 5.43 | > 100 | 2.77 | 9.77 | 2.36 | 4.57 | 1.88 | 3.76 | 2.31 | 5.98 | 4.43 | > 100 | 3.01 | > 23.6 | 2.56 | 7.73 | 3.38 | 11.7 |  | 
CC1(C)C2C/C(=C\c3ccccc3)C(=O)C1C2 (configuration not stated) |  | > 100 |  | > 100 |  | > 100 |  | > 100 |  | > 100 |  |  |  | > 100 |  | > 100 |  | > 100 | > 100 | 
C/C(=C\CC[C@]1(C)OC(C)(C)OC1CC/C(C)=C/CO[Si](c1ccccc1)(c1ccccc1)C(C)(C)C)CC/C=C/CO[Si](C)(C)C(C)(C)C (some centres not stated) |  | > 100 |  | > 100 |  | > 100 |  | > 100 |  | > 100 |  |  |  | > 100 |  | > 100 |  | > 100 | > 100 | 
CC12CC3CC(C1)CC(N=[N+]=[N-])(C3)C2 |  | > 100 |  | > 100 |  | > 100 |  | > 100 |  | > 100 |  |  |  | > 100 |  | > 100 |  |  | > 100 | 
CSC1C(=O)c2ccccc2/C(=N/Nc2nc3ccccc3s2)C1C (configuration not stated) | 14.5 | 29.6 | 7.26 | 14.2 | 0.648 | 4.22 | 1.6 | 9.78 | 14.6 | 33.1 | 9.94 | 25.5 |  |  | 16 | 44.4 | 7.96 | 19.1 | 18.4 | 8.44
Cn1c(=O)c(C(=O)NC(=O)OCc2ccccc2)cn(CCSCCOC(=O)NCCCCCCNC(=O)OCCSCCn2cc(C(=O)NC(=O)OCc3ccccc3)c(=O)n(C)c2=O)c1=O |  | > 100 |  | > 100 |  | > 100 |  | > 100 |  | > 100 |  |  |  |  |  | > 100 |  | > 100 | > 100 | 
C[CH2][Sn]([CH2]C)([O]C(=O)c1cccc(F)c1)[O][Sn]([CH2]C)([CH2]C)[O]C(=O)c1cccc(F)c1 | 25.4 | 50.9 | 17 | 31.3 | > 100 | > 100 | 31.7 | > 100 | 16.9 | 31.3 |  |  | 35.4 | > 100 | > 100 | > 100 | 17.9 | 32.9 | 29.1 | 15.3
COc1cc(/C=C2/C(=O)NC(Cc3cc(OC)c(OC)c(C)c3OC)C(=O)N2Cc2ccccc2)c(OC)c(C)c1OC (configuration not stated) |  | > 100 |  | > 100 |  | > 100 |  | > 100 |  | > 100 |  |  |  | > 100 |  | > 100 |  | > 100 | > 100 | 
O=C(N/C(=C\c1ccc(Oc2ccc(Cl)c(Cl)c2)cc1)c1nc2ccccc2[nH]1)c1ccccc1 |  | 67.9 |  | 35.5 |  |  |  | 30.4 |  | 34.8 |  |  |  | 32.6 |  | 54.4 |  | 37.1 | 50.5 | 
CC(C)(c1ccc(OC#N)cc1)c1ccc(OC#N)cc1 |  | > 100 |  | > 100 |  | > 100 |  | > 100 |  | > 100 |  |  |  | > 100 |  | > 100 |  | > 100 | > 100 | 
N#C[S-].[Au+].c1ccc(CN2[CH-]N(Cc3ccccc3)C(c3ccccc3)=C2c2ccccc2)cc1 | 1.21 | 3.28 |  |  |  |  |  |  |  |  |  |  |  |  | 0.593 | 3.24 | 0.431 | 2.49 |  | 
C=C1CC[C@@H]2[C@](C)(COC(C)=O)[C@H](OC(C)=O)CC[C@@]2(C)[C@@H]1C/C=C1/C(=O)OC[C@H]1OC(C)=O | 1.93 | 3.92 | 3.07 | 13.3 | 2.41 | 6.23 | 9.5 | 22.4 | 2.22 | 6.48 | 4.22 | 19.8 |  |  | 11.9 | 30.7 | 8.56 | 22.8 | 25.6 | 12.9
C=CCCCCCC(O)C(O)C/C=C\C/C=C\CC (configuration not stated) |  | > 18.8 |  | > 18.8 |  | > 18.8 |  | > 18.8 |  | > 18.8 |  |  |  | > 18.8 |  | > 18.8 |  | > 18.8 | > 18.8 | 
O=C1C[C@@H]2CCCC[C@@H]2C12SCCS2 |  | > 100 |  | > 100 |  | > 100 |  | > 100 |  |  |  |  |  |  |  | > 100 |  | > 100 | > 100 | 
Cc1ccc(/C=C2\CCCC\C2=N\O)cc1 |  |  |  | > 100 |  | > 100 |  | > 100 |  | > 100 |  |  |  | > 100 |  | > 100 |  | > 100 | > 100 | 
COC(=O)C(CC(=O)Nc1ccc(Cl)c(Cl)c1)C(=O)C(=O)NC1C2CC3CC(C2)CC1C3 (configuration not stated) |  | > 100 |  | > 100 |  | > 100 |  | > 100 |  | > 100 |  |  |  | > 100 |  | > 100 |  | > 100 | > 100 | 
COc1ccc2nc(C)cc(Nc3ccccc3O)c2c1 | 28.9 | > 100 | 38.2 | > 100 | 31.4 | > 100 | 15.4 | 30.4 | 17.6 | 45.8 | 47.2 | > 100 | 23.9 | > 100 | 38 | > 100 | 29.2 | > 100 |  | 
COc1cc2cccc(NC(=O)c3cc(OC)c(OC)c(OC)c3Br)c2cc1OC |  | 51.9 |  | > 100 |  | 44.6 |  | 10.6 |  | 23.5 |  |  |  | 71.9 |  | 46 |  | 59.3 | 75.9 | 
O=C1c2c(nc3ccccc3c2-c2ccccc2)CN1Nc1ccccc1 |  | > 100 |  | > 100 |  | > 100 |  | > 100 |  | > 100 |  |  |  | > 100 |  | > 100 |  | > 100 | > 100 | 
